Assay results taken from US20240116951A1, “HETEROCYCLIC COMPOUNDS AND USES THEREOF” (Kumquat Biosciences Inc., priority 2022, published 2024).
Blank lines part the entries; values can stand above or below the compound they belong to.

Key:
Format in all cases: binding
KRAS G12S = target: T1, KRAS G12S (Homo sapiens, UniProt P01116, G12S); assay: HTRF assay of K-Ras G12S interaction with SOS1 (PPI-HTRF); conditions: 5 nM KRAS G12S, read-out: PPI-HTRF-5 nM KRAS G12S
T1 construct: made in house; host or cells: E. coli, e.g. BL21 (DE3)
From the text: (§1) This assay can be also used to assess a selective inhibition or reduction of signaling output of a mutant Ras protein relative to a wildtype, or relative to a different mutant Ras protein. For example, the equilibrium interaction of wildtype Kras or K-Ras mutant (e.g., wildtype or a mutant thereof including those mentioned in Example 4) with SOS1 (e.g., hSOS1) can be assessed as a proxy or an indication for a subject compound's ability to bind and inhibit Ras protein. HTRF assay detects from (i) a fluorescence resonance energy transfer (FRET) donor (e.g., antiGST-Europium) that is bound to GST-tagged K-Ras mutant to (ii) a FRET acceptor (e.g., anti-6His-XL665) bound to a His-tagged hSOS1.
(§2) The assay buffer can contain ˜5 mM HEPES pH 7.4, ˜150 mM NaCl, ˜1 mM DTT, 0.05% BSA and 0.0025% (v/v) Igepal. A Ras working solution is prepared in an assay buffer containing typically a suitable amount of the protein construct (e.g., GST-tagged K-Ras mutant) and the FRET donor (e.g., antiGST-Eu(K) from Cisbio, France). A SOS1 working solution is prepared in an assay buffer containing suitable amount of the protein construct (e.g., His-hSOS1) and the FRET acceptor (e.g., anti-6His-XL665 from Cisbio, France). A suitable amount of the protein construct will depend on the range of activity or range of IC50 values being detected or under investigation. For detecting IC50 within a range of 500 nM, the protein constructs of the same range of molarity can be utilized. […] A fixed volume of DMSO with or without test compound is transferred into a 384-well plate. Ras working solution is added to all wells of the test plate. SOS1 working solution is added to all wells except for those that are subsequently filled the inhibitor control solution. Upon incubation for about 10 minutes or longer, the fluorescence is measured with a M1000Pro plate reader (Tecan) using HTRF detection (excitation 337 nm, emission 1: 620 nm, emission 2: 665 nm). Compounds are tested in duplicates at different concentrations (for example, 10 μM, 2.5 μM, 0.63 μM, 0.16 μM, 0.04 μM, 0.01 μM test compound). The ratiometric data (i.e., emission 2 divided by emission 1) is used to calculate IC50 values against Ras using GraphPad Prism (GraphPad software). Following this general procedure, samples were tested with or without a subject compound disclosed herein including compounds exemplified in Table 1 to assess their abilities to inhibit a mutant K-Ras relative to another mutant K-Ras or wildtype K-Ras. Signaling output measured in terms of IC50 values can be obtained, a ratio of IC50 against one mutant relative to another mutant can be calculated. For instance, a selective reduction of K-Ras G12D signaling output can be evidenced by a ratio greater than one. In particular, a selective reduction of K-Ras G12D signaling relative to K-Ras WT signaling is evidenced as the ratio of IC50 (against K-Ras WT) to IC50 (against K-Ras G12D) is greater than 1.

KRAS G12D = target: T2, KRAS G12D (Homo sapiens, UniProt P01116, G12D); assay: HTRF assay of K-Ras G12D interaction with SOS1 (PPI-HTRF); conditions: HTRF, 5 nM KRAS G12D; read-out: PPI-HTRF-5 nM KRAS G12D
T2 construct: made in house; host or cells: E. coli, e.g. BL21 (DE3)
From the text: as §1, §2

KRAS WT = target: T3, KRAS WT (Homo sapiens, UniProt P01116); assay: HTRF assay of wildtype K-Ras interaction with SOS1 (PPI-HTRF); conditions: HTRF, 5 nM KRAS WT; read-out: PPI-HTRF-5 nM KRAS WT
T3 construct: made in house; host or cells: E. coli, e.g. BL21 (DE3)
From the text: as §1, §2

T2 sequence (P01116 1-188 isoform P01116-2 G12D): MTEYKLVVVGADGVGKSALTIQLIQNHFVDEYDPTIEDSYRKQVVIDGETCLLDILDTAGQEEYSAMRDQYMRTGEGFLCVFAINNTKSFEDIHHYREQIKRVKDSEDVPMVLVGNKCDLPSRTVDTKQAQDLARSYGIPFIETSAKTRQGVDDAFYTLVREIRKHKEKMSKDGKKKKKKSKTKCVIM
T1 sequence (P01116 1-188 isoform P01116-2 G12S): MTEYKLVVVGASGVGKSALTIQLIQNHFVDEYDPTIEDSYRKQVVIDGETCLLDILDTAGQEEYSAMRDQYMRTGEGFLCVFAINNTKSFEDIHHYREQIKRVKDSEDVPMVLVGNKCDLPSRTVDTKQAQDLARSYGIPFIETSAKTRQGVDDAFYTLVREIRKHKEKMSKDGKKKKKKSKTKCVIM
T3 sequence (P01116 1-188 isoform P01116-2): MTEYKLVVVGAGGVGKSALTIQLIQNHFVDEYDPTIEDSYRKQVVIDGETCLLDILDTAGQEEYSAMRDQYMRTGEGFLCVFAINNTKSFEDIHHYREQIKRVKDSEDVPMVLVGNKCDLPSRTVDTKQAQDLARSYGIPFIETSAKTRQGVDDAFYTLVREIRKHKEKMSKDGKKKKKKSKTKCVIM

SMILES: N#CCc1ncn(C(=O)N2CCC23CCN(c2nc(OC[C@@]45CCCN4C[C@H](F)C5)nc4c(F)c(-c5ccc(F)c6sc(N)c(C#N)c56)c(Cl)cc24)C3)n1 (stereo partly drawn) [Compound 320, 2-amino-4-(6-chloro-4-(1-(3-(cyanomethyl)-1H-1,2,4-triazole-1-carbonyl)-1,6-diazaspiro[3.4]octan-6-yl)-8-fluoro-2-(((2R,7aS)-2-fluorotetrahydro-1H-pyrrolizin-7a(5H)-yl)methoxy)quinazolin-7-yl)-7-fluorobenzo[b]thiophene-3-carbonitrile]
- IC50 (KRAS G12S): < 5 µM
- IC50 (KRAS G12D): < 5 µM
- IC50 (KRAS WT): < 5 µM

SMILES: N#Cc1c(N)sc2c(F)ccc(-c3c(Cl)cc4c(N5CCC6(CCCN6)C5)nc(OC[C@@]56CCCN5C[C@H](F)C6)nc4c3F)c12 (stereo partly drawn) [Compound 284, 2-amino-4-(6-chloro-8-fluoro-2-(((2R,7aS)-2-fluorotetrahydro-1H-pyrrolizin-7a(5H)-yl)methoxy)-4-(1,7-diazaspiro[4.4]nonan-7-yl)quinazolin-7-yl)-7-fluorobenzo[b]thiophene-3-carbonitrile]
- IC50 (KRAS G12S): < 5 µM
- IC50 (KRAS G12D): < 5 µM
- IC50 (KRAS WT): < 5 µM

SMILES: Nc1nc2c(-c3c(F)c4nc(OC[C@@]56CCCN5C[C@H](F)C6)nc(N5CCC6(CCN6C(=O)n6cncn6)C5)c4c(=O)n3C3CC3)ccc(F)c2s1 (stereo partly drawn) [Compound 257, 4-(1-(1H-1,2,4-triazole-1-carbonyl)-1,6-diazaspiro[3.4]octan-6-yl)-7-(2-amino-7-fluorobenzo[d]thiazol-4-yl)-6-cyclopropyl-8-fluoro-2-(((2R,7aS)-2-fluorotetrahydro-1H-pyrrolizin-7a(5H)-yl)methoxy)pyrido[4,3-d]pyrimidin-5(6H)-one]
- IC50 (KRAS G12S): < 5 µM
- IC50 (KRAS G12D): < 5 µM
- IC50 (KRAS WT): < 5 µM

SMILES: Nc1nc2c(-c3c(Cl)cc4c(N5CCCC6(CCN6)C5)nc(OC[C@@]56CCCN5C[C@H](F)C6)nc4c3F)ccc(F)c2s1 (stereo partly drawn) [Compound 202, 4-(6-chloro-8-fluoro-2-(((2R,7aS)-2-fluorotetrahydro-1H-pyrrolizin-7a(5H)-yl)methoxy)-4-(1,6-diazaspiro[3.5]nonan-6-yl)quinazolin-7-yl)-7-fluorobenzo[d]thiazol-2-amine]
- IC50 (KRAS G12S): < 5 µM
- IC50 (KRAS G12D): < 5 µM
- IC50 (KRAS WT): < 5 µM

SMILES: CN1CCC[C@H]1COc1nc2c(c(N3CCC4(CCN4C(=O)n4cncn4)C3)n1)CCN(c1cccc3cccc(Cl)c13)C2 (stereo partly drawn) [Compound 245, (6-(7-(8-chloronaphthalen-1-yl)-2-(((S)-1-methylpyrrolidin-2-yl)methoxy)-5,6,7,8-tetrahydropyrido[3,4-d]pyrimidin-4-yl)-1,6-diazaspiro[3.4]octan-1-yl)(1H-1,2,4-triazol-1-yl)methanone]
- IC50 (KRAS G12S): > 5 µM
- IC50 (KRAS G12D): > 5 µM
- IC50 (KRAS WT): > 5 µM

SMILES: N#Cc1c(N)sc2c(F)ccc(-c3c(Cl)cc4c(N5CCC6(CCN6C#N)C5)nc(OC[C@@]56CCCN5C[C@H](F)C6)nc4c3F)c12 (stereo partly drawn) [Compound 303, 6-(7-(2-amino-3-cyano-7-fluorobenzo[b]thiophen-4-yl)-6-chloro-8-fluoro-2-(((2R,7aS)-2-fluorotetrahydro-1H-pyrrolizin-7a(5H)-yl)methoxy)quinazolin-4-yl)-1,6-diazaspiro[3.4]octane-1-carbonitrile]
- IC50 (KRAS G12S): < 5 µM
- IC50 (KRAS G12D): < 5 µM
- IC50 (KRAS WT): < 5 µM

SMILES: Cc1cc(N)c(F)c(-c2c(Cl)cc3c(N4CCC5(CCN5C(=O)n5cncn5)C4)nc(OC[C@@]45CCCN4C[C@H](F)C5)nc3c2F)c1C(F)(F)F (stereo partly drawn) [Compound 279, (6-(7-(3-amino-2-fluoro-5-methyl-6-(trifluoromethyl)phenyl)-6-chloro-8-fluoro-2-(((2R,7aS)-2-fluorotetrahydro-1H-pyrrolizin-7a(5H)-yl)methoxy)quinazolin-4-yl)-1,6-diazaspiro[3.4]octan-1-yl)(1H-1,2,4-triazol-1-yl)methanone]
- IC50 (KRAS G12S): > 5 µM
- IC50 (KRAS G12D): > 5 µM
- IC50 (KRAS WT): > 5 µM

SMILES: C[C@H](Oc1nc(N2CCC3(CCCN3C(=O)n3cncn3)C2)c2cc(Cl)c(-c3ccc(F)c4sc(N)c(C#N)c34)c(F)c2n1)[C@@H]1CCCN1C (stereo partly drawn) [Compound 241, 4-(4-(1-(1H-1,2,4-triazole-1-carbonyl)-1,7-diazaspiro[4.4]nonan-7-yl)-6-chloro-8-fluoro-2-((S)-1-((S)-1-methylpyrrolidin-2-yl)ethoxy)quinazolin-7-yl)-2-amino-7-fluorobenzo[b]thiophene-3-carbonitrile]
- IC50 (KRAS G12S): < 5 µM
- IC50 (KRAS G12D): < 5 µM
- IC50 (KRAS WT): < 5 µM

Now from value to compound:

- IC50 (KRAS G12S): < 5 µM
- IC50 (KRAS G12D): < 5 µM
- IC50 (KRAS WT): < 5 µM
SMILES: N#Cc1c(N)sc2c(F)ccc(-c3c(Cl)cc4c(N5CCC6(CCN6C(=O)ON6C(=O)CCC6=O)C5)nc(OC[C@@]56CCCN5C[C@H](F)C6)nc4c3F)c12 (stereo partly drawn) [Compound 243, 2,5-dioxopyrrolidin-1-yl 6-(7-(2-amino-3-cyano-7-fluorobenzo[b]thiophen-4-yl)-6-chloro-8-fluoro-2-(((2R,7aS)-2-fluorotetrahydro-1H-pyrrolizin-7a(5H)-yl)methoxy)quinazolin-4-yl)-1,6-diazaspiro[3.4]octane-1-carboxylate]

- IC50 (KRAS G12S): < 5 µM
- IC50 (KRAS G12D): < 5 µM
- IC50 (KRAS WT): < 5 µM
SMILES: N#Cc1c(N)sc2c(F)ccc(-c3c(Cl)cc4c(N5CCC6(CCN6C(=O)C(Cl)Cl)C5)nc(OC[C@@]56CCCN5C[C@H](F)C6)nc4c3F)c12 (stereo partly drawn) [Compound 347, 2-amino-4-(6-chloro-4-(1-(2,2-dichloroacetyl)-1,6-diazaspiro[3.4]octan-6-yl)-8-fluoro-2-(((2R,7aS)-2-fluorotetrahydro-1H-pyrrolizin-7a(5H)-yl)methoxy)quinazolin-7-yl)-7-fluorobenzo[b]thiophene-3-carbonitrile]

- IC50 (KRAS G12S): < 5 µM
- IC50 (KRAS G12D): < 5 µM
- IC50 (KRAS WT): < 5 µM
SMILES: N#Cc1c(N)sc2c(F)ccc(-c3c(Cl)cc4c(N5CCC6(CCCN6C(=O)C6CC6(F)F)CC5)nc(OC[C@@]56CCCN5C[C@H](F)C6)nc4c3F)c12 (stereo partly drawn) [Compound 341, 2-amino-4-(6-chloro-4-(1-(2,2-difluorocyclopropane-1-carbonyl)-1,8-diazaspiro[4.5]decan-8-yl)-8-fluoro-2-(((2R,7aS)-2-fluorotetrahydro-1H-pyrrolizin-7a(5H)-yl)methoxy)quinazolin-7-yl)-7-fluorobenzo[b]thiophene-3-carbonitrile]

- IC50 (KRAS G12S): < 5 µM
- IC50 (KRAS G12D): < 5 µM
- IC50 (KRAS WT): < 5 µM
SMILES: Nc1nc2c(-c3c(Cl)cc4c(N5CC6(CNCCN6)C5)nc(OC[C@@]56CCCN5C[C@H](F)C6)nc4c3F)ccc(F)c2s1 [Compound 205, 4-(6-chloro-8-fluoro-2-(((2R,7aS)-2-fluorotetrahydro-1H-pyrrolizin-7a(5H)-yl)methoxy)-4-(2,5,8-triazaspiro[3.5]nonan-2-yl)quinazolin-7-yl)-7-fluorobenzo[d]thiazol-2-amine]

- IC50 (KRAS G12S): < 5 µM
- IC50 (KRAS G12D): < 5 µM
- IC50 (KRAS WT): < 5 µM
SMILES: C[C@H]1CN(C(=O)n2cnc(F)n2)[C@]12CCN(c1nc(OC[C@@]34CCCN3C[C@H](F)C4)nc3c(F)c(-c4ccc(F)c5sc(N)c(C#N)c45)c(Cl)cc13)C2 [Compound 255, 2-amino-4-(6-chloro-8-fluoro-4-((3S,4R)-1-(3-fluoro-1H-1,2,4-triazole-1-carbonyl)-3-methyl-1,6-diazaspiro[3.4]octan-6-yl)-2-(((2R,7aS)-2-fluorotetrahydro-1H-pyrrolizin-7a(5H)-yl)methoxy)quinazolin-7-yl)-7-fluorobenzo[b]thiophene-3-carbonitrile]

- IC50 (KRAS G12S): < 5 µM
- IC50 (KRAS G12D): < 5 µM
- IC50 (KRAS WT): < 5 µM
SMILES: C=CC(=O)N1CC[C@@]12CCN(c1nc(OC[C@@]34CCCN3C[C@H](F)C4)nc3c(F)c(-c4ccc(F)c5sc(N)c(C#N)c45)c(Cl)cc13)C2 [Compound 291]
